Data published in BindingDB's records for doi:10.1021/jm00101a009 (University of Minnesota, 1992).
pKi: −log10 of the molar value.

Assay: The compound was evaluated for binding affinity against Opioid receptor delta 1 in guinea pig brain membrane using [3H]- DPDPE as ligand

SMILES	pKi
Oc1ccc2c3c1O[C@H]1c4[nH]c5ccccc5c4C[C@H]4C(C2)N(CCc2ccccc2)CC[C@]314 [22-phenethyl-14-oxa-11,22-diazaheptacyclo[13.9.1.01,13.02,21.04,12.05,10.019,25]pentacosa-4(12),5(10),6,8,15(25),16,18-heptaen-16-ol]	7.66
Oc1ccc2c3c1O[C@H]1c4[nH]c5ccccc5c4C[C@@]4(O)C(C2)NCC[C@]314	7.96
Oc1ccc2c3c1O[C@H]1c4[nH]c5ccccc5c4C[C@@]4(O)C(C2)N(CCc2ccccc2)CC[C@]314 [22-phenethyl-14-oxa-11,22-diazaheptacyclo[13.9.1.01,13.02,21.04,12.05,10.019,25]pentacosa-4(12),5(10),6,8,15(25),16,18-heptaene-2,16-diol]	7.96
Oc1ccc2c3c1O[C@H]1c4[nH]c5ccccc5c4C[C@H]4C(C2)NCC[C@]314	6.03
